Results: article PMC5996983 (Environmental science & technology, 2017)

Experiments:
[1] = system: embryonic zebrafish (Danio rerio); experiment: Embryonic zebrafish developmental toxicity bioassay; settings: for developmental toxicity to embryonic zebrafish: single compound standards, nominal 0.01 – 60 µM, exposure 6–120 hpf; for relative order of mean EC50: single standards, 120 hpf
[2] = system: alkene monooxygenase; experiment: Inhibition of PHE transformation in ELW1 by 1-octyne; type: cell-based, Mycobacterium sp. strain ELW1; settings: ~7 µmol 1-octyne in the aqueous media
[3] = system: Mycobacterium sp. strain ELW1; experiment: PHE transformation by ELW1, resting cell tests
[4] = cited from earlier work
[5] = system: Mycobacterium sp. PYR-1; settings: cited from earlier work
[6] = system: Pasteurella spp.; settings: cited from earlier work
[7] = system: Mycobacterium sp. strains PYRGCK, JS19b1, czh-3, czh-117; settings: cited from earlier work
[8] = system: Mycobacterium sp. A1-PYR; settings: cited from earlier work
[9] = 96-well plates ref 64; cited from earlier work

For `O[C@@H]1c2ccccc2-c2ccccc2[C@H]1O` (relative stereo) [trans-9,10-OHPHE, trans-9,10-dihydroxy-9,10-dihydrophenanthrene], which “developmental toxicity to embryonic zebrafish” value (from here on “developmental toxicity”) [1] is on record?
Its value is “not toxic”.

With `Oc1cc2c(O)cccc2c2ccccc12` [1,9-OHPHE, 1,9-dihydroxyphenanthrene] as the compound, how does the “developmental toxicity” value [1] read?
Its value is “toxic”.

What about the “relative order of mean EC50” value [1] of the same compound?
The value was “most toxic”.

Which “developmental toxicity” value [1] does the source give for `Oc1cccc2c1ccc1ccccc12` [1-OHPHE, 1-hydroxyphenanthrene] here?
The value was “toxic”.

What about the “relative order of mean EC50” value [1] of the same compound?
The value was “least toxic”.

With `C#CCCCCCC` [1-Octyne, 1-octyne] as the compound, how does the “inhibition of PHE degradation” value [2] read?
Its value is “effectively, but not completely, inhibited”.

With `Oc1ccc2ccc3ccccc3c2c1` [3-OHPHE, 3-hydroxyphenanthrene] as the compound, how does the “developmental toxicity” value [1] read?
Its value is “toxic”.

With `Oc1cccc2ccc3ccccc3c12` [4-OHPHE, 4-hydroxyphenanthrene] as the compound, how does the “developmental toxicity” value [1] read?
The value was “toxic”.

Which “developmental toxicity” value [1] does the source give for `Oc1cc2ccccc2c2ccccc12` [9-OHPHE, 9-hydroxyphenanthrene] here?
Its value is “toxic”.

Which “first-order PHE transformation rate, kPHE” value ([3]; 1-octyne controls) does the source give for `c1ccc2c(c1)ccc1ccccc12` [PHE, phenanthrene] here?
Its value is 0.015 to 0.10 h⁻¹.

What about the “half-life, t1/2” value ([3]; 1-octyne controls) of the same compound?
Its value is 7.0 to 47 h.

What about the “half-life, t1/2” value ([3]; PHE-exposed cells) of the same compound?
The value was 1.4 to 4.3 h.

And the water solubility [4]?
The water solubility was ~ 7 µM.

What about the “non-normalized first-order rate of PHE transformation” value [5] of the same compound?
The value was -0.0015 h⁻¹.

What about the “non-normalized first-order rate of PHE transformation” value [6] of the same compound?
The value was -0.0005 h⁻¹.

And the zero-order transformation rate [7]?
Its zero-order transformation rate is −0.0020 to −0.019 µmol hr^−1.

And the zero-order transformation rate [8]?
The zero-order transformation rate was -0.019 µmol/h.

And the “sorptive losses in test system” value [9]?
The value was “less than 10%”.
